# Measured values taken from ChEMBL document CHEMBL1137069, “Design, synthesis and anti-microbial activity of 1H-pyrazole carboxylates” (2004).
# Where “and” joins values, the source holds several entries; their conditions need not be identical. Identical values can stand only once.
# Legend:
# Type in all cases: functional
# [1] = Antifungal activity against Bipolaris oryzae was measured as mycelial growth at 0.1 mg/mL concentration
# [2] = Antifungal activity against Bipolaris oryzae was measured as mycelial growth at 0.5 mg/mL concentration
# Curvularia lunata [3] = test: Antifungal activity against Curvularia lunata was measured as mycelial growth at 0.1 mg/mL concentration
# Curvularia lunata [4] = test: Antifungal activity against Curvularia lunata was measured as mycelial growth at 0.5 mg/mL concentration
# Fusarium oxysporum [5] = test: Antifungal activity against Fusarium oxysporum was measured as mycelial growth at 0.1 mg/mL concentration
# Enterococcus faecalis [6] = test: Antibacterial activity against […] was measured as area of inhibition zone at 0.1 mg/mL concentration
# Staphylococcus aureus [7] = test: Antibacterial activity against Staphylococcus aureus was measured as area of inhibition zone at 0.1 mg/mL concentration; settings: for zone of inhibition at 100 µg/mL: Staphylococcus aureus
# Pseudomonas aeruginosa [8] = test: Antibacterial activity against Pseudomonas aeruginosa was measured as area of inhibition zone at 0.1 mg/mL concentration; settings: for zone of inhibition at 100 µg/mL: Pseudomonas aeruginosa
# Fusarium oxysporum [9] = test: Antifungal activity against Fusarium oxysporum was measured as mycelial growth at 0.5 mg/mL concentration
# Thanatephorus cucumeris [10] = test: Antifungal activity against Rhizoctonia solani was measured as mycelial growth at 0.1 mg/mL concentration
# Thanatephorus cucumeris [11] = test: Antifungal activity against Rhizoctonia solani was measured as mycelial growth at 0.5 mg/mL concentration
# Alternaria alternata [12] = test: Antifungal activity against Alternaria alternata was measured as mycelial growth at 0.1 mg/mL concentration
# Alternaria alternata [13] = test: Antifungal activity against Alternaria alternata was measured as mycelial growth at 0.5 mg/mL concentration
# [14] = Antifungal activity against Bipolaris oryzae was determined at 0.1 mg/mL concentration
# [15] = Antifungal activity against Bipolaris oryzae was determined at 0.5 mg/mL concentration
# Curvularia lunata [16] = test: Antifungal activity against Curvularia lunata was determined at 0.1 mg/mL concentration
# Curvularia lunata [17] = test: Antifungal activity against Curvularia lunata was determined at 0.5 mg/mL concentration
# Fusarium oxysporum [18] = test: Antifungal activity against Fusarium oxysporum was determined at 0.1 mg/mL concentration
# Fusarium oxysporum [19] = test: Antifungal activity against Fusarium oxysporum was determined at 0.5 mg/mL concentration
# Thanatephorus cucumeris [20] = test: Antifungal activity against Rhizoctonia solani was determined at 0.1 mg/mL concentration
# Thanatephorus cucumeris [21] = test: Antifungal activity against Rhizoctonia solani was determined at 0.5 mg/mL concentration
# Escherichia coli [22] = test: Antibacterial activity against Escherichia coli was determined at 0.1 mg/mL concentration
# Escherichia coli [23] = test: Antibacterial activity against Escherichia coli was determined at 0.5 mg/mL concentration
# Pseudomonas aeruginosa [24] = test: Antibacterial activity against Pseudomonas aeruginosa was determined at 0.1 mg/mL concentration
# Enterococcus faecalis [25] = test: Antibacterial activity against […] was determined at 0.1 mg/mL concentration
# Enterococcus faecalis [26] = test: Antibacterial activity against […] was determined at 0.5 mg/mL concentration
# Staphylococcus aureus [27] = test: Antibacterial activity against Staphylococcus aureus was determined at 0.1 mg/mL concentration
# Staphylococcus aureus [28] = test: Antibacterial activity against Staphylococcus aureus was determined at 0.5 mg/mL concentration
# Pseudomonas aeruginosa [29] = test: Antibacterial activity against Pseudomonas aeruginosa was determined at 0.5 mg/mL concentration
# Alternaria alternata [30] = test: Antifungal activity against Alternaria alternata was determined at 0.1 mg/mL concentration
# Alternaria alternata [31] = test: Antifungal activity against Alternaria alternata was determined at 0.5 mg/mL concentration
# [32] = Antibacterial activity against Escherichia coli was measured as area of inhibition zone at 0.1 mg/mL concentration
SMILES,Mycelial growth [1],Mycelial growth [2],Mycelial growth (Curvularia lunata [3]),Mycelial growth (Curvularia lunata [4]),Mycelial growth (Fusarium oxysporum [5]),zone of inhibition at 100 µg/mL (Enterococcus faecalis [6]),Inhibition Zone (Staphylococcus aureus [7]),zone of inhibition at 100 µg/mL (Staphylococcus aureus [7]),zone of inhibition at 100 µg/mL (Pseudomonas aeruginosa [8]),Mycelial growth (Fusarium oxysporum [9]),Mycelial growth (Thanatephorus cucumeris [10]),Mycelial growth (Thanatephorus cucumeris [11]),Mycelial growth (Alternaria alternata [12]),Mycelial growth (Alternaria alternata [13]),inhibition at 100 µg/mL [14],inhibition at 500 µg/mL [15],inhibition at 100 µg/mL (Curvularia lunata [16]),inhibition at 500 µg/mL (Curvularia lunata [17]),inhibition at 100 µg/mL (Fusarium oxysporum [18]),inhibition at 500 µg/mL (Fusarium oxysporum [19]),also measured
CCOC(=O)c1cn(-c2ccc([N+](=O)[O-])cc2[N+](=O)[O-])nc1-c1ccccc1F,5.7 cm,4.3 cm,5 cm,4 cm,6 cm,23 mm,7.3 cm,42 mm,0 mm,5.3 cm,9 cm,8.2 cm,4.2 cm,3.4 cm,36.7%,52.2%,44.4%,55.6%,33.3%,41.1%,inhibition at 100 µg/mL (Thanatephorus cucumeris [20]): 0%; inhibition at 500 µg/mL (Thanatephorus cucumeris [21]): 8.9%; inhibition at 100 µg/mL (Escherichia coli [22]): 20%; inhibition at 500 µg/mL (Escherichia coli [23]): 56.7%; inhibition at 100 µg/mL (Pseudomonas aeruginosa [24]): 0%; inhibition at 100 µg/mL (Enterococcus faecalis [25]): 0%; inhibition at 500 µg/mL (Enterococcus faecalis [26]): 25.6%; inhibition at 100 µg/mL (Staphylococcus aureus [27]): 46.7%; inhibition at 500 µg/mL (Staphylococcus aureus [28]): 81.1%; inhibition at 500 µg/mL (Pseudomonas aeruginosa [29]): 0%; inhibition at 100 µg/mL (Alternaria alternata [30]): 53.3%; inhibition at 500 µg/mL (Alternaria alternata [31]): 62.2%
CCOC(=O)c1cn(-c2ccc([N+](=O)[O-])cc2[N+](=O)[O-])nc1C,6 cm,4.5 cm,6.5 cm,5.3 cm,6.3 cm,76 mm,5.3 cm,82 mm,0 mm,5.4 cm,9 cm,8 cm,5.5 cm,4.8 cm,33.3%,5%,27.8%,41.1%,30%,40%,Inhibition Zone [32]: 7.8 cm and 4.6 cm; zone of inhibition at 100 µg/mL ([32]; Escherichia coli): 50 mm; inhibition at 100 µg/mL (Thanatephorus cucumeris [20]): 0%; inhibition at 500 µg/mL (Thanatephorus cucumeris [21]): 11.1%; inhibition at 100 µg/mL (Escherichia coli [22]): 51.1%; inhibition at 500 µg/mL (Escherichia coli [23]): 86.7%; inhibition at 100 µg/mL (Pseudomonas aeruginosa [24]): 0%; inhibition at 100 µg/mL (Enterococcus faecalis [25]): 55.6%; inhibition at 500 µg/mL (Enterococcus faecalis [26]): 84.4%; inhibition at 100 µg/mL (Staphylococcus aureus [27]): 58.9%; inhibition at 500 µg/mL (Staphylococcus aureus [28]): 91.1%; inhibition at 500 µg/mL (Pseudomonas aeruginosa [29]): 0%; inhibition at 100 µg/mL (Alternaria alternata [30]): 38.9%; inhibition at 500 µg/mL (Alternaria alternata [31]): 46.7%
Cc1nn(-c2ccc([N+](=O)[O-])cc2[N+](=O)[O-])cc1C(=O)OCc1ccccc1,6 cm,4.8 cm,6.4 cm,5.3 cm,6.3 cm,73 mm,4.1 cm,71 mm,17 mm,4.3 cm,7.9 cm,6.5 cm,5.2 cm,4.2 cm,33.3%,46.7%,28.9%,41.1%,30%,52.2%,Inhibition Zone (Pseudomonas aeruginosa [8]): 2 cm; inhibition at 100 µg/mL (Thanatephorus cucumeris [20]): 12.2%; inhibition at 500 µg/mL (Thanatephorus cucumeris [21]): 27.8%; inhibition at 100 µg/mL (Escherichia coli [22]): 17.8%; inhibition at 500 µg/mL (Escherichia coli [23]): 54.4%; inhibition at 100 µg/mL (Pseudomonas aeruginosa [24]): 18.9%; inhibition at 100 µg/mL (Enterococcus faecalis [25]): 56.7%; inhibition at 500 µg/mL (Enterococcus faecalis [26]): 81.1%; inhibition at 100 µg/mL (Staphylococcus aureus [27]): 45.6%; inhibition at 500 µg/mL (Staphylococcus aureus [28]): 78.9%; inhibition at 500 µg/mL (Pseudomonas aeruginosa [29]): 22.2%; inhibition at 100 µg/mL (Alternaria alternata [30]): 42.2%; inhibition at 500 µg/mL (Alternaria alternata [31]): 53.3%
